The numbers were not newly measured in patent publication US5041577A, “Organogermanium compounds, processes for producing the same, and agent for inhibiting the activity of opioid peptide-degrading enzyme” (Asai Germanium Research Institute Co., Ltd., priority 1989, dated 1991), which cites them from elsewhere.

Data set [1] has as its system spontaneous hypertensive rats.

For the compound `O=C(O)C[CH2][Ge](=[O])[O][Ge](=[O])[CH2]CC(=O)O` [carboxyethylgermanium sesquioxide], in the data set on interferon, the interferon-inducing action result is given as “interferon-inducing action”. In addition, the macrophage-augmenting action result in the data set with macrophage is recorded as “macrophage-augmenting action”. In data set [1], the hypotensive action entry was “shows a hypotensive action”. In the data set with amyloidosis, the amyloidosis-alleviating action result is listed as “amyloidosis-alleviating action”. The antitumor action entry in the data set on tumor is listed as “antitumor action”.
